From ChEMBL document CHEMBL4811278, “Discovery of novel modulators for the PPARα (peroxisome proliferator activated receptor α): Potential therapies for nonalcoholic fatty liver disease” (Bioorg Med Chem, 2021)
Calls of active or inactive are those of the source. No cut-off for these calls is given here.

Columns and labels:
[1] = molecular target: T1, Peroxisome proliferator-activated receptor alpha (Mus musculus) (UniProt P23204); assay: In vivo agonist activity at PPARalpha in high fat diet-induced nonalcoholic steatohepatitis C57BL/6J mouse model assessed as increase in Cyp4a3 mRNA expression in liver administered at 3 mg/kg, po and measured after 24 hrs by quantitative real time PCR analysis; format: functional, organism-based
T1 sequence (whole entry): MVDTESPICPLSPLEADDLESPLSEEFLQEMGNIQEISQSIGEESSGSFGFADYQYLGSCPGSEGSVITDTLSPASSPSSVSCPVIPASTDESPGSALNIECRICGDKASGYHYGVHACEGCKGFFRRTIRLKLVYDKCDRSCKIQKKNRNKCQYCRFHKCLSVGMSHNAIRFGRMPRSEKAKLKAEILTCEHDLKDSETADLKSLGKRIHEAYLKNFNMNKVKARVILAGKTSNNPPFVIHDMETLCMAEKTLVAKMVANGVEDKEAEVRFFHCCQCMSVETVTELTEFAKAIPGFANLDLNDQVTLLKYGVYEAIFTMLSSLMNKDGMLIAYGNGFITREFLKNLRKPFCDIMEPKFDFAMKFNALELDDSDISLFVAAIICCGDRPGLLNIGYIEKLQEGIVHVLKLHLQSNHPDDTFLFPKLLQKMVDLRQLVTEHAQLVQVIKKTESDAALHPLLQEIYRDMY

[2] = molecular target: T1, Peroxisome proliferator-activated receptor alpha (Mus musculus); assay: In vivo agonist activity at PPARalpha in high fat diet-induced nonalcoholic steatohepatitis C57BL/6J mouse model assessed as increase in mACADM gene expression in liver at 3 mg/kg, po administered once daily for 7 days by quantitative real time PCR analysis; format: functional, organism-based; details: time 7.0 day
[3] = Toxicity in high fat diet-induced nonalcoholic steatohepatitis C57BL/6J mouse model assessed as increase in plasma glucose level at 3 mg/kg, po administered once daily for 7 days and measured after 4 days; format: organism-based; details: in vivo, 96 h, time 4 day
[4] = molecular target: T1, Peroxisome proliferator-activated receptor alpha (Mus musculus); assay: In vivo agonist activity at PPARalpha in high fat diet-induced nonalcoholic steatohepatitis C57BL/6J mouse model assessed as increase in ACOX1 mRNA expression in liver administered at 3 mg/kg, po and measured after 24 hrs by quantitative real time PCR analysis; format: functional, organism-based
[5] = molecular target: T1, Peroxisome proliferator-activated receptor alpha (Mus musculus); assay: In vivo agonist activity at PPARalpha in high fat diet-induced nonalcoholic steatohepatitis C57BL/6J mouse model assessed as increase in mCPT1A gene expression in liver at 3 mg/kg, po administered once daily for 7 days and measured at >3 days by quantitative real time PCR analysis; format: functional, organism-based; details: time day >3
[6] = molecular target: T1, Peroxisome proliferator-activated receptor alpha (Mus musculus); assay: In vivo agonist activity at PPARalpha in high fat diet-induced nonalcoholic steatohepatitis C57BL/6J mouse model assessed as increase in LPL mRNA expression in liver administered at 3 mg/kg, po administered once daily for 7 days by quantitative real time PCR analysis; format: functional, organism-based; details: time 7.0 day
[7] = molecular target: T1, Peroxisome proliferator-activated receptor alpha (Mus musculus); assay: In vivo agonist activity at PPARalpha in high fat diet-induced nonalcoholic steatohepatitis C57BL/6J mouse model assessed as increase in Cyp4a3 mRNA expression in liver administered at 3 mg/kg, po administered once daily for 7 days by quantitative real time PCR analysis; format: functional, organism-based; details: time 7.0 day
[8] = test system: Mus musculus; assay: Hypolipidemic activity in high fat diet-induced nonalcoholic steatohepatitis C57BL/6J mouse model assessed as reduction in plasma triglyceride level at 3 mg/kg, po administered via gavage and measured after 24 hrs; format: functional
[9] = molecular target: T1, Peroxisome proliferator-activated receptor alpha (Mus musculus); assay: In vivo agonist activity at PPARalpha in high fat diet-induced nonalcoholic steatohepatitis C57BL/6J mouse model assessed as increase in LPL mRNA expression in liver administered at 3 mg/kg, po and measured after 24 hrs by quantitative real time PCR analysis; format: functional, organism-based
[10] = molecular target: T2, Peroxisome proliferator-activated receptor alpha (Homo sapiens, UniProt Q07869); assay: Agonist activity at Gal4-fused human PPARalpha co-expressed with RXRalpha in monkey CV1 cells assessed as PPRE transcriptional activation incubated for 45 hrs by luciferase reporter gene assay; format: cell-based, CV-1
T2 sequence (Q07869 whole entry): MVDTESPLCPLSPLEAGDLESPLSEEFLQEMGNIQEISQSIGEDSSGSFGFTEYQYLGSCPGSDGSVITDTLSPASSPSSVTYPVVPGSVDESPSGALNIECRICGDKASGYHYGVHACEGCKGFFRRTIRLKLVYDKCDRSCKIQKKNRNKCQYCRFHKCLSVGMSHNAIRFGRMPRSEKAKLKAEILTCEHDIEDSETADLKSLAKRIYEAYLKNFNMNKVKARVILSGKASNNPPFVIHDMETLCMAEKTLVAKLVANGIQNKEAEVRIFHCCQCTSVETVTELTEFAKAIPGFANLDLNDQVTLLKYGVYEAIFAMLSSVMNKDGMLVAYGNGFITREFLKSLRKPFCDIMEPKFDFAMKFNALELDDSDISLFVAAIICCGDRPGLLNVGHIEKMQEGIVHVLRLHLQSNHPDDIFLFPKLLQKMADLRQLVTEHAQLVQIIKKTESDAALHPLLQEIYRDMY

[11] = test system: Mus musculus; assay: Upregulation of PPARalpha expression in liver of high fat diet-induced nonalcoholic steatohepatitis C57BL/6J mouse model at 3 mg/kg, po and measured after 24 hrs by quantitative real time PCR analysis; format: functional, organism-based
[12] = molecular target: T1, Peroxisome proliferator-activated receptor alpha (Mus musculus); assay: In vivo agonist activity at PPARalpha in high fat diet-induced nonalcoholic steatohepatitis C57BL/6J mouse model assessed as trans-repression of ApoC3 mRNA expression in liver administered at 3 mg/kg, po and measured after 24 hrs by quantitative real time PCR analysis; format: functional, organism-based
[13] = molecular target: T3, Peroxisome proliferator-activated receptor delta (Homo sapiens, UniProt Q03181); assay: Agonist activity at Gal4-fused human PPARdelta expressed in monkey CV1 cells assessed as receptor transactivation incubated for 45 hrs by luciferase reporter gene assay; format: cell-based, CV-1
T3 sequence (Q03181 whole entry): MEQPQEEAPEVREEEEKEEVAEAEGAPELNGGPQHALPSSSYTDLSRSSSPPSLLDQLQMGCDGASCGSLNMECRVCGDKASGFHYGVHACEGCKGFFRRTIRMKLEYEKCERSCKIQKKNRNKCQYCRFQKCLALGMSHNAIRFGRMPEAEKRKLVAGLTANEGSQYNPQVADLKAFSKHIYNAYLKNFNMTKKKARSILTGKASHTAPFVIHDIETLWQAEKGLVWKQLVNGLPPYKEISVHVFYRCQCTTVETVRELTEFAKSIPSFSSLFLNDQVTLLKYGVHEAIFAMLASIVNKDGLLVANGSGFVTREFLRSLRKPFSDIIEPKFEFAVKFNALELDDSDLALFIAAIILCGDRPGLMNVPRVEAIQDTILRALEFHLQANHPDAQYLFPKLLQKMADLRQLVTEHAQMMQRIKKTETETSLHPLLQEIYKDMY

[14] = molecular target: T4, Peroxisome proliferator-activated receptor gamma (Homo sapiens, UniProt P37231); assay: Agonist activity at Gal4-fused human PPARgamma expressed in monkey CV1 cells assessed as receptor transactivation incubated for 45 hrs by luciferase reporter gene assay; format: cell-based, CV-1
T4 sequence (P37231 whole entry): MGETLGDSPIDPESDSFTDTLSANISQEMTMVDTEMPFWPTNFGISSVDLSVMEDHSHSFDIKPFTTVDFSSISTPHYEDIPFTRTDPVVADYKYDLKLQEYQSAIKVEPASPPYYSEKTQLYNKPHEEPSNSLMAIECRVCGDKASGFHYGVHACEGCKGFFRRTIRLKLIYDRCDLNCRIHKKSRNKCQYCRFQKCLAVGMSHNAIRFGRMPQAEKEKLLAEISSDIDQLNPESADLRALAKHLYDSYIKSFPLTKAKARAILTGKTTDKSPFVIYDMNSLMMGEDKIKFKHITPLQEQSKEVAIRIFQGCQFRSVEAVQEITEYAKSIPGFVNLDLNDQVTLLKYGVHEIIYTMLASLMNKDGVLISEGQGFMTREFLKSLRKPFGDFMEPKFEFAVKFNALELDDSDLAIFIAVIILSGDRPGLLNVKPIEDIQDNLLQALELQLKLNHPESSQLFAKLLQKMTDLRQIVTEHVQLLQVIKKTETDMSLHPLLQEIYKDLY

[15] = molecular target: T5, Peroxisome proliferator-activated receptor alpha (Mus musculus, UniProt P23204); assay: Agonist activity at Gal4-fused mouse PPARalpha co-expressed with RXRalpha in monkey CV1 cells assessed as PPRE transcriptional activation incubated for 45 hrs by luciferase reporter gene assay; format: cell-based, CV-1
T5 sequence (P23204 whole entry): T1 sequence (whole entry)

SMILES | Activity [1] | Activity [2] | Activity [4] | Activity [5] | Activity [6] | Activity [7] | Activity [9] | EC50 [10] | Activity [12] | EC50 [13] | EC50 [14] | EC50 [15] | Activity [3] | inhibition in vivo at 3 mg/kg [8] | Activity [11]
CC(C)(Sc1ccc(CCN(CCCCC2CCCCC2)C(=O)NC2CCCCC2)cc1)C(=O)O [GW7647] | inactive | Active | inactive | Active | inactive | Active | – | – | – | – | – | – | Toxic | ≥ 50% | –
COc1ccc(Cn2c(CCCc3ccc(OC(C)(C)C(=O)O)cc3)nn(Cc3ccc(C(C)(C)C)cc3)c2=O)cc1 | Active | – | Active | – | – | – | – | – | Active | – | – | – | – | ≥ 50% | Active
Cc1ccc(Cn2nc(CCCc3ccc(OC(C)(C)C(=O)O)cc3)n(Cc3ccc(Cl)cc3)c2=O)cc1 | Active | – | Active | – | – | – | Active | 1 nM | Active | > 10 µM | > 10 µM | 10 nM | – | ≥ 50% | Active
Cc1ccc(Cn2nc(CCCc3ccc(OC(C)(C)C(=O)O)cc3)n(Cc3ccc(F)cc3)c2=O)cc1 | Active | – | Active | – | – | – | Active | 0.95 nM | Active | > 10 µM | > 10 µM | – | – | ≥ 50% | Active
COc1cc(Cn2c(CCCc3ccc(OC(C)(C)C(=O)O)cc3)nn(Cc3ccc(C)cc3)c2=O)cc(OC)c1OC | Active | – | Active | – | – | – | Active | – | Active | > 10 µM | > 10 µM | – | – | ≥ 50% | Active
Cc1ccc(Cn2nc(CCCc3ccc(OC(C)(C)C(=O)O)cc3)n(Cc3ccc(C)cc3)c2=O)cc1 | inactive | – | inactive | – | – | – | Active | 0.85 nM | inactive | > 10 µM | > 10 µM | – | – | ≥ 50% | Active

Further lines, with some results ahead:

Activity [1] | Activity [2] | Activity [4] | Activity [5] | Activity [6] | Activity [7] | Activity [9] | EC50 [10] | Activity [12] | EC50 [13] | EC50 [14] | EC50 [15] | SMILES | Activity [3] | inhibition in vivo at 3 mg/kg [8] | Activity [11]
Active | – | Active | – | – | – | Active | 1 nM | Active | > 10 µM | > 10 µM | – | COc1cccc(Cn2c(CCCc3ccc(OC(C)(C)C(=O)O)cc3)nn(Cc3ccc(C)cc3)c2=O)c1 | – | ≥ 50% | Active
Active | – | Active | – | – | – | Active | – | Active | > 10 µM | > 10 µM | – | Cc1ccc(Cn2nc(CCCc3ccc(OC(C)(C)C(=O)O)cc3)n(Cc3ccccc3)c2=O)cc1 | – | ≥ 50% | Active
Active | – | Active | – | – | – | Active | 12 nM | Active | > 10 µM | > 10 µM | 20 nM | C=Cc1ccc(Cn2nc(CCCc3ccc(OC(C)(C)C(=O)O)cc3)n(Cc3ccc(C)cc3)c2=O)cc1 | – | ≥ 50% | Active
